US20250034165A1, “COMPOUND CONTAINING CYCLOALKYL OR HALOALKYL” (CHIA TAI TIANQING PHARMACEUTICAL GROUP CO., LTD., priority 2021, published 2025)
Where two headings read alike, the source gives them in different places.

Assays:
[1] = tested on: BAF3-EGFR (del19/T790M/C797S) cells; test: Inhibition of proliferation of BAF3-EGFR (Del19/T790M/C797S) cells, CCK-8; format: cell-based; conditions: Ba/F3 EGFR-Del19/T790M/C797S, 72 h, read-out: BAF3(EGFR T790M Del19 C797S) cell inhibitory activity IC50
Procedure: (§1) A flask of BAF3-EGFR (del19/T790M/C797S) cells in the logarithmic growth phase and good conditions was taken, and the cells were collected and added to a centrifuge tube. 20 μL of cells were taken and counted, and the required number of cells (mL) was pipetted and centrifuged at 1200 rpm for 3 min. The supernatant was discarded, and an appropriate amount of plating medium (RPMI medium+10% FBS) was added to adjust the cell density to 1.0×10^5 cells/mL. The cells were seeded on a 96-well plate at 100 μL/well using a multi-channel pipette and cultured in a cell incubator at 37° C., 5% CO2 with saturated humidity. After overnight incubation, compounds were loaded using a nanoliter pipettor, 2 duplicate wells were set for each concentration, and cells without compound added were used as negative controls.
(§2) Inhibition rate (%)=(mean value of negative control group-mean value of experimental group)/(mean value of negative control group−mean value of blank group)×100%.
(§3) A dose-response curve was fitted by four-parameter analysis, with the logarithm of compound concentration serving as abscissa and inhibition rate serving as ordinate, such that IC50 was calculated.

[2] = target: EGFR (d746-750 (d19)/T790M) (Homo sapiens (Human), UniProt P00533, DEL746-750/T790M); test: Inhibitory activity for EGFR (d746-750 (d19)/T790M) kinase; format: biochemical; conditions: ATP 5 μM
Procedure: 1.3 Screening for Inhibitory Activity for EGFR (d746-750 (d19)/T790M) Kinase
(§4) A 50 ng/μL EGFR (d746-750/T790M, Carna) stock solution was diluted with a kinase buffer (50 mM HEPES, 10 mM MgCl2, 2 mM DTT, 1 mM EGTA, 0.01% Tween 20), and 6 μL of 1.67× working solution at 0.005 ng/μL (final concentration: 0.003 ng/μL) was added to each well. Different compounds dissolved in DMSO were added to the wells using a nanoliter pipettor, resulting in the final concentrations of the compounds of 10 nM to 0.0024 nM (4-fold gradient for 7 concentrations in total), and blank control wells (without enzyme) and negative control wells (with enzyme, plus vehicle DMSO) were set, 2 replicate wells for each concentration. After enzyme was reacted with the compound or vehicle for 30 min, 5×ATP at 25 μM (final concentration: 5 μM, Sigma) prepared with a kinase buffer was mixed with 5× substrate at 0.5 μM (final concentration: 0.1 μM, ULight-poly GT, PerkinElmer) at a ratio of 1:1 (v:v), and the mixture was added to each well at 4 μL/well. After being sealed with a film, the plate was incubated at room temperature for 2 h, and then 5 μL of 4×EDTA at 40 mM (final concentration: 10 mM) was added to each well. After the plate was incubated for 5 min at room temperature, 5 μL of 4× detection reagent at 8 nM (final concentration: 2 nM, Eu-anti-phospho-tyrosine antibody, PerkinElmer) was added to each well. After being incubated at room temperature for 1 h, the plate was read using a PerkinElmer Envision multi-mode microplate reader (excitation: 320 nm, emission: 665 nm), and IC50 was calculated by four-parameter fitting.

[3] = target: EGFR (d746-750/T790M/C797S) (Homo sapiens (Human), UniProt P00533, C797S/DEL746-750/T790M); test: Inhibitory activity for EGFR (d746-750/T790M/C797S) kinase; format: biochemical; conditions: ATP 5 μM; read-out: EGFR(d19/T790M/C797S) (IC50)
Procedure: 1.5 Screening for Inhibitory Activity for EGFR (d746-750/T790M/C797S) Kinase
as §4, with “(d746-750/T790M/C797S, BPS)” for “(d746-750/T790M, Carna)”, “0.05” for “0.005”, “0.03” for “0.003”

[4] = tested on: BAF3-EGFR (L858R/T790M/C797S) cells; test: Inhibition of proliferation of BAF3-EGFR (L858R/T790M/C797S) cells, CCK-8; format: cell-based; conditions: Ba/F3 EGFR, 72 h, read-out: BAF3(EGFR T790M L858R C797S) cell inhibitory activity IC50
Procedure: as §1, with “EGFR (L858R/T790M/C797S)” for “BAF3-EGFR (del19/T790M/C797S)”, “1.5×10^5” for “1.0×10^5”
as §2, §3

[5] = In vivo pharmacokinetics in ICR mice; conditions: for AUC(0-inf) / AUC(0-t) / MRT last / half-life / bioavailability / Cmax / Tmax: mouse, plasma; for AUC(0-t): read-out: AUC(0-t); for MRT last: read-out: MRT(0-t); for half-life: read-out: T½ (converted); for bioavailability: 10 mg/kg, PO vs IV; for Cmax: read-out: Cmax; for Tmax: read-out: Tmax
Procedure: The animals to be tested (ICR mice) were fasted for 12 h before administration and food was provided 4 h after administration, and water was freely drunk before and after the experiment and during the experiment.
After intragastric administration, about 0.1 mL of blood was collected from the orbit at 0 min, 15 min, 30 min, 1 h, 2 h, 4 h, 6 h, 8 h, 10 h, and 24 h. After anticoagulation with EDTA-K2, blood samples were transferred to a centrifuge within 30 min, and centrifuged at 4000 rpm for 10 min at 4° C. to separate the plasma. All the plasma samples were collected and immediately stored at −20° C. for testing.
300 μL of acetonitrile solution containing an internal standard ([…] diazepam) was added to 20 μL of the plasma sample to be tested and a standard curve sample. The mixture was shaken and homogeneously mixed for 5 min, and centrifuged at 12,000 rpm for 10 min. 70 μL of supernatant was taken and diluted with 70 μL of ultrapure water. After being mixed well, 2 μL of the resulting sample was subjected to LC/MS/MS, and a chromatogram was recorded.

[6] = tested on: PC-9 EGFR-Del19-T790M-C797S cells; test: Inhibition of proliferation of PC-9-EGFR (Del19 T790M C797S) cells, CCK-8; format: cell-based; conditions: 72 h, read-out: PC-9-EGFR (Del19 T790M C797S) cell inhibitory activity IC50
Procedure: PC-9 EGFR-Del19-T790M-C797S cells in the logarithmic growth phase and good conditions were taken, washed with PBS, digested with pancreatin, terminated with a complete medium, collected and added to a centrifuge tube, adjusted to a cell density of 2×10^4 cells/mL, and seeded in a 96-well plate (100 μL/well). Meanwhile, compounds were loaded using a nanoliter pipettor resulting in the final concentrations of the compounds of 1000 nM-0.06 nM, and a control was set, replicate wells for each concentration. After 72 h of incubation in the cell incubator, the assay reagent CCK-8 (manufacturer: Dojindo Laboratories, Beijing; 10 μL/well) was added. After 2 h of incubation in the cell incubator, absorbance was measured at 450 nm on a PerkinElmer Envision microplate reader, and the inhibition rate was calculated.
as §2, §3

EGFR (d746-750/T790M/C797S), sequence (P00533 other isoform, or with tags, fused parts or gaps T790M/C797S/del 1-694/del 746-750 limits assumed): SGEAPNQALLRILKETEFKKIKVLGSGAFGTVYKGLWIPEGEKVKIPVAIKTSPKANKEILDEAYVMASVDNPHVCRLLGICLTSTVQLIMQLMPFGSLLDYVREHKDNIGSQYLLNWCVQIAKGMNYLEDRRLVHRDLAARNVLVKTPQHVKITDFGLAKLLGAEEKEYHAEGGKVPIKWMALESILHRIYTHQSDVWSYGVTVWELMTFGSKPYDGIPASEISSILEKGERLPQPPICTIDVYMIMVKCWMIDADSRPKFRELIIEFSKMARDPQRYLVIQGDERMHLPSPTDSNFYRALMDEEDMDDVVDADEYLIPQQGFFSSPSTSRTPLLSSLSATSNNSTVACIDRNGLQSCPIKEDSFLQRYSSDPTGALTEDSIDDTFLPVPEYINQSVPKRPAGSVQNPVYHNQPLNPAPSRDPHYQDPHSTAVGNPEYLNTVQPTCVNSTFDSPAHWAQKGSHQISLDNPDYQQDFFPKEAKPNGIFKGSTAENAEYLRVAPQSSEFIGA
EGFR (d746-750 (d19)/T790M), sequence (P00533 other isoform, or with tags, fused parts or gaps T790M/del 1-668/del 746-750 limits assumed): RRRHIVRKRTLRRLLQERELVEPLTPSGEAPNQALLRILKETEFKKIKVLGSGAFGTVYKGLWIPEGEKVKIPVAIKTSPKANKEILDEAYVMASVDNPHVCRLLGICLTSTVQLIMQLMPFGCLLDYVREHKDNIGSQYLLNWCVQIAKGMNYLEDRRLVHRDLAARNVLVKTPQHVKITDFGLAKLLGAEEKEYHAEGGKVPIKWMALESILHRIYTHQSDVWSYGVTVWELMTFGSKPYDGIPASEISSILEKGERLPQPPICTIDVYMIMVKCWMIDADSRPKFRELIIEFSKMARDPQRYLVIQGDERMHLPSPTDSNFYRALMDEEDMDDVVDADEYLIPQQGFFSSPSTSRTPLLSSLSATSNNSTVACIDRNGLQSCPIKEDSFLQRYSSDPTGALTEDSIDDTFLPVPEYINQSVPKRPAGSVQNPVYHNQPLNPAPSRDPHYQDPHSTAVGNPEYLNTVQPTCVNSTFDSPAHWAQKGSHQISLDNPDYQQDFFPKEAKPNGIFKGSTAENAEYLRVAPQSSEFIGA

SMILES | IC50 [1] [nM] | IC50 [2] [nM] | IC50 [3] [nM] | IC50 [4] [nM] | also measured
CCC1(Nc2ccc3c(c2)N/C2=N\C(=O)c4cc(C)nc(c4)-c4cnn(C)c4OCCC[C@@H](C4CC4)CN23)COC1 [Example 90] | < 1 | – | – | < 5 | CLz ([5]; IV): 37.8 mL/min/kg; AUC(0-inf) ([5]; 1 mg/kg, IV): 441 ng·h/mL; AUC(0-t) ([5]; 1 mg/kg, IV): 441 ng·h/mL; MRT last ([5]; 1 mg/kg, IV): 1.65 h; half-life ([5]; 1 mg/kg, IV): 1.58 h; bioavailability [5]: 68.4%; AUC(0-inf) ([5]; PO, 10 mg/kg intragastric): 3020 ng·h/mL; AUC(0-t) ([5]; PO, 10 mg/kg intragastric): 3010 ng·h/mL; Cmax ([5]; PO, 10 mg/kg intragastric): 352 ng/mL; MRT last ([5]; PO, 10 mg/kg intragastric): 6.47 h; Tmax ([5]; PO, 10 mg/kg intragastric): 0.5 h; half-life ([5]; PO, 10 mg/kg intragastric): 2.46 h
Cc1cc2cc(n1)-c1cnn(C)c1OCCC[C@@H](C1CC1)CN1/C(=N/C2=O)Nc2cc(NCC3COC3)ccc21 [Example 36] | < 1 | 0.015 | 0.022 | < 5 | –
Cc1cc2cc(n1)-c1cnn(C)c1OCCC[C@@H](C1CC1)CN1/C(=N/C2=O)Nc2ccc(NCCCN(C)C)cc21 [Example 27] | < 1 | 0.019 | 0.027 | < 5 | –
Cc1cc2cc(n1)-c1cnn(C)c1OCCC[C@@H](C1CC1)CN1/C(=N/C2=O)Nc2cc(NCCN(C)C)ccc21 [Example 42] | < 1 | 0.0076 | 0.012 | < 5 | –
Cc1cc2cc(n1)-c1cnn(C)c1OCCC[C@@H](C1CC1)CN1/C(=N/C2=O)Nc2ccc(NCCN)cc21 [Example 58] | < 1 | 0.0094 | 0.015 | < 5 | –
Cc1cc2cc(n1)-c1cnn(C)c1OCCC[C@@H](C1CC1)CN1/C(=N/C2=O)Nc2ccc(OCCN(C)C)cc21 [Example 11] | < 1 | 0.025 | 0.024 | < 5 | –

More lines, main results first:

IC50 [1] [nM] | IC50 [2] [nM] | IC50 [3] [nM] | IC50 [4] [nM] | SMILES | also measured
< 1 | 0.012 | 0.014 | < 5 | Cc1cc2cc(n1)-c1cnn(C3CC3)c1OCCC[C@@H](C)CN1/C(=N/C2=O)Nc2ccc(NCCN(C)C)cc21 [Example 17] | –
< 1 | – | – | < 5 | Cc1cc2cc(n1)-c1cnn(C)c1OCCC[C@@H](C1CC1)CN1/C(=N/C2=O)Nc2cc(NCCCN3CCOCC3)ccc21 [Example 74] | CLz ([5]; IV): 70.5 mL/min/kg; AUC(0-inf) ([5]; 1 mg/kg, IV): 236 ng·h/mL; AUC(0-t) ([5]; 1 mg/kg, IV): 233 ng·h/mL; MRT last ([5]; 1 mg/kg, IV): 1.35 h; half-life ([5]; 1 mg/kg, IV): 1.84 h; bioavailability [5]: 35.4%; AUC(0-inf) ([5]; PO, 10 mg/kg intragastric): 830 ng·h/mL; AUC(0-t) ([5]; PO, 10 mg/kg intragastric): 824 ng·h/mL; Cmax ([5]; PO, 10 mg/kg intragastric): 97.6 ng/mL; MRT last ([5]; PO, 10 mg/kg intragastric): 6.42 h; Tmax ([5]; PO, 10 mg/kg intragastric): 0.5 h; half-life ([5]; PO, 10 mg/kg intragastric): 3.18 h; IC50 [6]: < 50 nM
< 1 | 0.51 | 0.36 | < 5 | Cc1cc2cc(n1)-c1cnn(C)c1OCCC[C@@H](C1CC1)CN1/C(=N/C2=O)Nc2cc(NC(C)C3(C)COC3)ccc21 (some centres unmarked) [Example 89] | IC50 [6]: < 50 nM
< 1 | 0.013 | 0.022 | < 5 | Cc1cc2cc(n1)-c1cnn(C)c1OCCC[C@@H](C1CC1)CN1/C(=N/C2=O)Nc2cc(NC(C)CN(C)C)ccc21 (some centres unmarked) [Example 62] | –
< 1 | 0.013 | 0.017 | < 5 | Cc1cc2cc(n1)-c1cnn(C)c1OCCC[C@@H](C1CC1)CN1/C(=N/C2=O)Nc2ccc(NCCN3CCCCC3)cc21 [Example 83] | –
< 1 | 0.0085 | 0.02 | < 5 | Cc1cc2cc(n1)-c1cnn(C)c1OCCC[C@@H](C1CC1)CN1/C(=N/C2=O)Nc2ccc(NCCN3CCCC3)cc21 [Example 82] | IC50 [6]: < 50 nM
< 1 | 0.014 | 0.02 | < 5 | CCN1CCC(Nc2ccc3c(c2)N2C[C@H](C4CC4)CCCOc4c(cnn4C)-c4cc(cc(C)n4)C(=O)/N=C/2N3)CC1 [Example 55] | IC50 [6]: < 50 nM
< 1 | 0.018 | 0.03 | < 5 | Cc1cc2cc(n1)-c1cnn(C)c1OCCC[C@@H](C1CC1)CN1/C(=N/C2=O)Nc2cc(NCC3CCOCC3)ccc21 [Example 22] | –
